The record followed here is US20090297438A1, “Human Monoclonal Antibodies to Prostate Specific Membrane Antigen (PSMA)” (priority 2005, published 2009).

This test concerns LNCaP human prostate carcinoma xenografts. The test is described as follows: LNCaP tumor xenografts treated with Taxotere and 7F12 antibody. It counts as in vivo, male CB17.SCID mice. Particulars: Taxotere alone, 2 and 4 mg/kg iv. The method, then: The anti-tumor efficacy of the anti-PSMA 7F12 antibody in combination with Taxotere® (docetaxel) was tested on LNCaP human prostate carcinoma xenografts grown in male CB17.SCID mice.
LNCaP prostate cancer cells expressing high levels of PSMA were obtained from ATCC (Cat# CRL-1740) and expanded in vitro following ATCC instruction. 8 week-old male CB17.SCID mice from Taconic were implanted subcutaneously in the right flank with 2.5×10^6 LNCaP cells in 0.2 ml of PBS/Matrigel (1:1) per mouse. Mice were weighed and measured for tumor volume using an electronic caliper twice weekly starting three weeks post implantation. Tumor volumes were calculated as height×width×length. Mice with vascularized tumors (determined by the appearance of the tumors) of 180 mm^3 were randomized into treatment group and were dosed per individual body weight on Day 0. Mice were monitored for tumor growth around 60 days post dosing and terminated at the end of the study. Mice were euthanized when the tumors reached tumor end point (1500 mm^3). Taxotere® was dosed at Q3Dx3 intravenously (iv) through the tail vein. Isotype control antibody Rituxan® and the anti-PSMA 7F12 antibody were dosed intraperitoneally (ip) Q3Dx5, followed with Q7Dx6.

`CC(=O)O[C@@]12CO[C@@H]1C[C@H](O)[C@@]1(C)C(=O)[C@H](O)C3=C(C)[C@@H](OC(=O)[C@H](O)[C@@H](NC(=O)OC(C)(C)C)c4ccccc4)C[C@@](O)([C@@H](OC(=O)c4ccccc4)[C@H]21)C3(C)C` [Taxotere®, docetaxel]: the anti-tumor growth efficacy result was “dose-dependent anti-tumor growth efficacy”.
